PubChem BioAssay (NCI)
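Grown in 96-well plates, cells were treated for 48 hours with each compound at five concentrations. Insufficient inhibition: endpoint recorded as highest concentration tested. TGI: concentration producing complete growth inhibition.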

Legend:
Assay in all cases: NCI-60 cell line screen, 48 h
MDA-MB-231 breast = test system: MDA-MB-231 breast
SR leukemia = test system: SR leukemia
TK-10 renal = test system: TK-10 renal
NCI-H460 lung = test system: NCI-H460 lung
HCT-15 colon = test system: HCT-15 colon
HS 578T breast = test system: HS 578T breast
SK-MEL-2 melanoma = test system: SK-MEL-2 melanoma
OVCAR-4 ovarian = test system: OVCAR-4 ovarian
MCF7 breast = test system: MCF7 breast
LOX IMVI melanoma = test system: LOX IMVI melanoma
RXF 393 renal = test system: RXF 393 renal
UACC-257 melanoma = test system: UACC-257 melanoma
SK-MEL-5 melanoma = test system: SK-MEL-5 melanoma
COLO 205 colon = test system: COLO 205 colon
NCI-H226 lung = test system: NCI-H226 lung

| Compound | TGI (MDA-MB-231 breast) [µM] | TGI (SR leukemia) [µM] | TGI (TK-10 renal) [µM] | TGI (NCI-H460 lung) [µM] | TGI (HCT-15 colon) [µM] | TGI (HS 578T breast) [µM] | TGI (SK-MEL-2 melanoma) [µM] | TGI (OVCAR-4 ovarian) [µM] | TGI (MCF7 breast) [µM] | TGI (LOX IMVI melanoma) [µM] | TGI (RXF 393 renal) [µM] | TGI (UACC-257 melanoma) [µM] | TGI (SK-MEL-5 melanoma) [µM] | TGI (COLO 205 colon) [µM] | TGI (NCI-H226 lung) [µM] |
| --- | --- | --- | --- | --- | --- | --- | --- | --- | --- | --- | --- | --- | --- | --- | --- |
| CC(C)(C)c1cc(C(=O)/C=C/C=C/c2ccccc2)cc(C(C)(C)C)c1O | 49 | 13.4 | 59.2 | 31.5 | > 67.1 | > 100 | 34.5 | > 100 | > 86.6 | 50.9 | 15.1 | 25.4 | 37.2 | 34.9 | 77.2 |
| O=C1NN=C2C=C(c3ccc(Cl)cc3)CC(c3cccc(Cl)c3)C12 (stereo not given) | 42.7 | 41.7 | 48.1 | 47.2 | 32.8 | 55 | 45.3 | 66.5 | 48.5 | 33.4 | 38.5 | 48.5 | 39.9 | 35.8 | 60.6 |
| CCOC(=O)c1ccc(C(=O)/C(C#N)=C2\CCCN2C)[nH]1 | > 100 | > 100 | > 100 | > 100 | > 100 | > 100 | > 100 | > 100 | > 100 | > 100 | > 100 | > 100 | > 100 | > 100 | > 100 |
| O=C(c1cc(Cl)cc(Cl)c1)N1CCN(C(=O)c2cc(Cl)cc(Cl)c2)C1=S | 31.9 | 11.3 | 23.2 | 37.2 | 31 | > 100 | 34.1 | 38.4 | 12.5 | 11.6 | 26.4 | 28.8 | 33.7 | 35.2 | 49.8 |
| Cn1c(N)c2c3c(sc2nc1=O)CCCC3 | > 75 | > 75 | > 75 | > 75 | > 75 | > 75 | > 75 | > 75 | > 75 | > 75 | > 75 | > 75 | > 75 | > 75 | > 75 |
| O=P(O)(Cc1ccccc1)c1ccccc1-c1ccccc1 | > 100 | > 100 | > 100 | > 100 | > 100 | > 100 | > 100 | > 100 | > 100 | > 100 | > 100 | > 100 | > 100 | > 100 | > 100 |
| Cc1cc(C)nc(NS(=O)(=O)c2ccc(NNC(=O)c3cccc4c(=O)c5ccccc5[nH]c34)cc2)n1 | > 100 | > 100 | > 100 | > 100 | > 100 | > 100 | 76.5 | > 100 | > 100 | > 100 | > 100 | > 100 | > 100 | > 100 | > 100 |
| O=S(=O)(O)c1ccc(N=Nc2ccc(N=Nc3c(O)ccc4ccccc34)cc2)cc1 | > 100 | > 100 | > 100 | > 100 | > 100 | > 100 | > 100 | > 100 | > 100 | > 100 | > 100 | > 100 | > 100 | > 100 | > 100 |
| CC1C[C@]2(C)C(=O)Nc3ccccc3[C@@H]2Nc2ccccc21 (stereo not given in full) | 36 | 41.4 | 58 | 65.8 | > 100 | 72.9 | 45 | > 100 | 84.9 | 30.8 | 77.9 | 39.5 | 31.3 | 34 | 76.1 |
| COc1ccc(N2C(=O)CS(=O)(=O)C2c2cccc(Oc3ccccc3)c2)cc1 (stereo not given) | 7.6 | 8.48 | 8.46 | 8.03 | 55.2 | 28.5 | 15.9 | 79.5 | 4.72 | 29.5 | 19 | 10.9 | 16.7 | 11.4 | 52.6 |
| COC(=O)C1(OC(=O)Sc2ccccc2)CCN(C)CC1 | 59 | 35.7 | > 75.6 | 58.1 | > 63.1 | 70.9 | > 100 | > 100 | > 100 | 28.4 | 34.9 | 56.6 | > 70.4 | 29.8 | 35.7 |
| C[C@H]1C2Cc3cc(N)ccc3[C@@]1(C)CCN2CCc1ccccc1 | > 100 | > 100 | > 100 | > 100 | > 100 | > 100 | > 100 | > 100 | 94.1 | 41.2 | > 100 | > 100 | 37.2 | 32.9 | > 100 |
| CSc1ncnc2c1cnn2CCCCO | > 100 | > 100 | > 100 | > 100 | > 100 | > 100 | > 100 | > 100 | > 100 | > 100 | > 100 | > 100 | > 100 | > 100 | > 100 |
| CN(C)/C=N/n1c2ccccc2c2ccccc21 | > 100 | > 100 | > 100 | > 100 | > 100 | > 100 | > 100 | > 100 | > 100 | > 100 | > 100 | > 100 | > 100 | > 100 | > 100 |
| Nc1nc2c(ncn2Cc2ccc(CO)cc2)c(=O)[nH]1 | > 100 | > 100 | > 100 | > 100 | > 100 | > 100 | > 100 | > 100 | > 100 | > 100 | > 100 | > 100 | > 100 | > 100 | > 100 |
